Test results reported in article PMC12865225 (Clinical and Translational Science, 2026).

Tests used:
OAT2 = tested on: T1, OAT2; assay: Uptake transport assay in OAT2-expressing HEK293 cells; type: cell-based, human; conditions: 2 and 50 μM, 10 min
T1 construct: expressed in transfected cells; host or cells: HEK293 (recombinant baculovirus-mediated transduction)
Experimental: (§1) The human transporters OATP1B1, OATP1B3, OATP2B1, and OAT1‐OAT4 and a negative control protein (enhanced yellow fluorescent protein, eYFP) were transiently expressed in human embryonic kidney 293 (HEK293) cells by recombinant baculovirus‐mediated transduction. Baculoviruses carrying human genes for the transporters were prepared as reported previously. HEK293 cells were cultured in DMEM containing 10% fetal bovine serum at 37°C and 5% CO2 and passaged two to three times per week. For the transport studies, 0.05 × 10^6 cells for 48‐well plates (OATPs) or 0.06 × 10^6 cells for 24‐well plates (OATs) were seeded onto cell‐culture treated well plates coated with poly‐D‐lysine. After 1 day, cells were transduced to produce recombinant proteins by changing media to DMEM containing 30 μL (48‐well plates) or 60 μL (24‐well plates) of recombinant baculovirus and 3 mM (OATs) or 5 mM (OATPs) sodium butyrate in a total media volume of 500 μL. The cells were cultured for a further 2 days before the transport assays.
For the transport studies, media were removed and cells were washed once with warm transport uptake buffer (TP‐buffer—pH 7.4 HBSS with 25 mM HEPES and 4 mM sodium bicarbonate). Each experiment included triplicate (OATP) or duplicate (OAT) samples for every test condition. […]

OAT3 = target: T2, OAT3 (Homo sapiens, UniProt Q8TCC7); assay: Uptake transport assay in OAT3-expressing HEK293 cells; conditions: for transport by OAT3: 2 and 50 μM, 10 min; for Vmax (pmol/106 cells/min) OAT3: uptake, 2 min
T2 sequence (Q8TCC7 1-542): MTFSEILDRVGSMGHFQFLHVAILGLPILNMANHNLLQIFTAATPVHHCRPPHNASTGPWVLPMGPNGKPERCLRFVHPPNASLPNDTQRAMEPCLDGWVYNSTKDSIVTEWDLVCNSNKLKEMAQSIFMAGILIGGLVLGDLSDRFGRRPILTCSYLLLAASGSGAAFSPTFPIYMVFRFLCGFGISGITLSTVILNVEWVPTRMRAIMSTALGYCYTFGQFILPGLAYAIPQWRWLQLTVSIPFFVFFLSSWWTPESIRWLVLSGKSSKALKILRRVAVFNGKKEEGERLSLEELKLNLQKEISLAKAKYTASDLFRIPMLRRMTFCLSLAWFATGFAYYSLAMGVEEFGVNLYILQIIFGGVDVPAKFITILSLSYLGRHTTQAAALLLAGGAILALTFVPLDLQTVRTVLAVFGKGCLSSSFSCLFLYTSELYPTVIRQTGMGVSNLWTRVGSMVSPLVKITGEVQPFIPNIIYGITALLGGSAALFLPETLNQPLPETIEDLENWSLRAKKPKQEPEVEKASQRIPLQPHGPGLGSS
Experimental: as §1
(§2) For the transport studies, media were removed and cells were washed once with warm transport uptake buffer (TP‐buffer—pH 7.4 HBSS with 25 mM HEPES and 4 mM sodium bicarbonate). Each experiment included triplicate (OATP) or duplicate (OAT) samples for every test condition. The uptake was started by removing liquid from wells and applying warm TP‐buffer (200 μL for 24‐well plates or 125 μL for 48‐well plates) containing a test compound to cells. Transport assays were terminated after a pre‐specified incubation time (reported in figure legends) by removing substrate solution and washing cells three times with cold TP‐buffer (300 μL for 48‐well plates and 400 μL for 24‐well plates). For the liquid chromatography mass spectrometry (LC–MS) analysis, compounds were extracted from cells with 125 μL (48‐well plates) or 250 μL (24‐well plates) of an ultrapure‐water solution containing 75% methanol and 0.1% formic acid, shaking at 250 RPM for 30 min. […] Samples were transferred to well plates, centrifuged at 3000 g for 30 min, and transferred to a new well plate for the analysis.
(§3) Equation (2) (the Michaelis–Menten equation) was fit to the transport kinetic assay data. […] (2) Uptake=Vmax×S/Km+S

OATP1B1 = target: T3, OATP1B1 (Homo sapiens, UniProt Q9Y6L6); assay: Uptake transport assay in OATP1B1-expressing HEK293 cells; type: cell-based; conditions: for transport by OATP1B1: 2 and 50 μM, 10 min
T3 construct: expressed in transfected cells; host or cells: HEK293 (recombinant baculovirus-mediated transduction)
T3 sequence (Q9Y6L6 1-691): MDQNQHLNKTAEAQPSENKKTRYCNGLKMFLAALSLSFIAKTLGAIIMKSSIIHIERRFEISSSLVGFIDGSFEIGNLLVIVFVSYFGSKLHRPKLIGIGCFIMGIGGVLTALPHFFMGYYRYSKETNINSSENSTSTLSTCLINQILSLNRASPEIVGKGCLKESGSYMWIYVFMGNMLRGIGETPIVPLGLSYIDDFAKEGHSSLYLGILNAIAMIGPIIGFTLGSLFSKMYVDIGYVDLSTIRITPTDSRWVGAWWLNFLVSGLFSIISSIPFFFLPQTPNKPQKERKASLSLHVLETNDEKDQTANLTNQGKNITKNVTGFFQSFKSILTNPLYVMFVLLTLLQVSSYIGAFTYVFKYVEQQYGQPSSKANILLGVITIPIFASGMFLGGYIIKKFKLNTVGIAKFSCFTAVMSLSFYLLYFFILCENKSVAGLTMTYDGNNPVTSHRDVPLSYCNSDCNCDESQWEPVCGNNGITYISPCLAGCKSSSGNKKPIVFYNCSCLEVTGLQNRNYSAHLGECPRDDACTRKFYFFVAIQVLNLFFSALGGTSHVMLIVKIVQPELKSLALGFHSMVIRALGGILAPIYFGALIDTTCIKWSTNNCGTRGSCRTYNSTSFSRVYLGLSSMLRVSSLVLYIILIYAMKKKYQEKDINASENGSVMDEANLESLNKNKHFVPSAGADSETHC
Experimental: as §1, §2, §3

OAT1 = tested on: T4, OAT1; assay: OAT1 inhibition, fluorescein uptake into HEK293 cells; type: cell-based; conditions: human, HEK293 cells transiently expressing OAT1, pH 7.4, probe fluorescein 5 µM; 200 μM inhibitor, 5 μM fluorescein; read-out: inhibition of fluorescein transport into OAT1-expressing cells
T4 construct: expressed in transfected cells; host or cells: HEK293 (recombinant baculovirus-mediated transduction)
Experimental: as §1, with “After 1 day, cells were transduced to produce recombinant proteins by changing media to DMEM containing 30 μL (48‐well plates) or 60 μL (24‐well plates) of recombinant baculovirus and 3 mM (OATs) or 5 mM (OATPs) sodium butyrate in a total media volume of 500 μL. The cells were cultured for a further 2 days before the transport assays.” left out
In the OATP inhibition assays, inhibitors in warm TP‐buffer were directly applied to cells after media removal, followed by a 30‐min preincubation step in the presence of inhibitors. […] OAT1 and OAT3 cells were lysed with 200 μL of 1 M sodium hydroxide for 10 min, and 150 μL of these samples were transferred to a black well plate for fluorescein quantification. […]
For the inhibition data analysis, the average of measured concentrations in the control cells was subtracted from the average of measured concentrations in transporter‐expressing cells for each inhibitor concentration and then normalized to the vehicle sample that represents 100% transport activity. […]

Structure (SMILES) | transport by OAT2 (OAT2) | transport by OAT3 (OAT3) | Vmax (pmol/106 cells/min) OAT3 (OAT3) | transport by OATP1B1 (OATP1B1) | Vmax (pmol/106 cells/min) OATP1B1 (OATP1B1; uptake, 2 min) | inhibition at 5 min, 200 μM (OAT1) | Km (OATP1B1; uptake, 2 min)
Cc1onc(-c2c(Cl)cccc2Cl)c1C(=O)N[C@@H]1C(=O)N2[C@@H]1SC(C)(C)[C@@H]2C(=O)O [Dicloxacillin] | transported | transported | 296 pmol/106 cells/min | transported | 15.9 pmol/106 cells/min | < 50% | 
Cc1onc(-c2c(F)cccc2Cl)c1C(=O)N[C@@H]1C(=O)N2[C@@H]1SC(C)(C)[C@@H]2C(=O)O [Flucloxacillin] | transported | transported | 277 pmol/106 cells/min | transported | 23.5 pmol/106 cells/min | < 50% | 10 to 18 µM
